From ChEMBL document CHEMBL3137361, “MMV Box P. falciparum screening”

Test system: Plasmodium falciparum
Experiment: MMV: Growth inhibition of P. falciparum cultures was quantified using a parasite lactate dehydrogenase (LDH) assay. The cultures were diluted to 0.5% parasitemea and 2% hematocrit and subjected to each twofold serial dilutions of the compounds for 72 h (DMSO final concentration, 0.25%). After 72 h, the cultures were frozen. LDH activity of P. falciparum parasites in aliquots of freeze-thawed cultures was spectrophotometrically measured and the IC50s were determined.
Type: functional, organism-based
Settings: FCR3, 72 h

| SMILES | IC50 |
| --- | --- |
| FC(F)(F)c1cccc(Nc2nc(-c3ccccc3)nc3ncccc23)c1 | 905 nM |
| CSc1ccccc1C(=O)Nc1nc(-c2ccccn2)cs1 | 2160 nM |
| O=c1nc(C=Cc2ccc(Cl)cc2)oc2ccccc12 | > 5000 nM |
| O=C(Nc1ccc(Cl)c(Cl)c1)Nc1ccc(Cl)c(Cl)c1 | 2020 nM |
| O=C(Nc1nc(-c2ccccn2)cs1)c1ccccc1Br | 2720 nM |
| CC(C)(C)CC(C)(C)NCC(O)COc1ccc(Cl)cc1Cl (stereo not given) | 544 nM |
| OC(CNCc1ccccc1)Cn1c2ccccc2c2ccccc21 (stereo not given) | 717 nM |
| FC(F)(F)c1cccc(Nc2nc3ccccc3nc2Nc2cccc(C(F)(F)F)c2)c1 | 1160 nM |
| O=C(Nc1ccc(N2CCCCC2)c(Cl)c1)c1ccc(Br)o1 | 1090 nM |
| Brc1ccc(Nc2nc3ccccc3nc2Nc2ccc(Br)cc2)cc1 | 1560 nM |
| OC(CNCC1CCCO1)Cn1c2ccc(Cl)cc2c2cc(Cl)ccc21 (stereo not given) | 291 nM |
| O=C(NCC1Cc2cccc(-c3ccncc3)c2O1)c1csc2c1CCCC2 (stereo not given) | > 5000 nM |
| COc1ccc(C(=O)C2CC2c2ccc(Cl)cc2)cc1 (stereo not given) | 2700 nM |
| c1ccc(CNc2nc(Nc3ccccc3)nc3ccccc23)cc1 | 430 nM |
| COc1ccc(Nc2nc(NCc3ccccc3)c3ccccc3n2)cc1 | 204 nM |
| CCCCC(O)(c1ccc(Cl)cc1)C(CN1CCOCC1)c1ccc(Cl)cc1 (stereo not given) | > 5000 nM |
| O=C1c2ccccc2C2=Nc3ccccc3SC(c3cccc(F)c3)C12 (stereo not given) | 708 nM |
| OC1=C2C(=Nc3ccccc3SC2c2ccccc2)c2ccccc21 (stereo not given) | 337 nM |
| O=C(Nc1cccc(C(F)(F)F)c1)c1cc(Cl)ccc1O | 3620 nM |
| Cc1ccc(C)c(Cn2c(N3CCC(C(=O)NCc4cccs4)CC3)nc3ccccc32)c1 | 1810 nM |

| SMILES | IC50 |
| --- | --- |
| COc1ccc2sc(N(Cc3cccnc3)C(=O)c3ccc(C#N)cc3)nc2c1 | > 5000 nM |
| COc1ccc(C=C2SC(=N)N(c3ccccc3OC)C2=O)cc1 | 287 nM |
| CCn1nc(-c2ccc(C(=O)OC)cc2)nc2c(=O)n(C)c(=O)nc1-2 | 1510 nM |
| COc1ccc(C(O)(CCC(C)C)C(CN2CCOCC2)c2ccc(Cl)cc2)cc1 (stereo not given) | > 5000 nM |
| Cc1cc(Nc2ccc(OCc3ccccc3)cc2)nc2cc(O)ccc12 | 127 nM |
| CCc1ccc(Nc2cc(C)c3ccc(O)cc3n2)cc1 | 76.7 nM |
| CCC(O)c1ccc(Br)cc1NC(=O)c1cccc(Cl)c1 (stereo not given) | 1330 nM |
| COc1ccccc1NC1=C(N2CCCCC2)C(=O)c2ccccc2C1=O | 50 nM |
| COc1cccc(C2(C)Nc3ccccc3-c3nc4ccccc4n32)c1 (stereo not given) | 388 nM |
| Cc1ccc(Nc2nc(-c3ccccn3)cs2)cc1 | 1430 nM |
| CCCCCCC(O)(c1ccc(F)cc1)C(CN1CCOCC1)c1ccccc1 (stereo not given) | > 5000 nM |
| CC1(c2ccccc2)Nc2ccccc2-c2nc3ccccc3n21 (stereo not given) | 394 nM |
| O=c1nc(C=Cc2ccc(Br)cc2)oc2ccccc12 | > 5000 nM |
| OCCNc1nc(Nc2ccc(Cl)c(Cl)c2)nc2ccccc12 | 274 nM |
| CN(C)c1ccc(C(O)(c2ccc(N(C)C)cc2)c2ccc(N(C)C)cc2)cc1 [METHYLROSANILINE] | 47.3 nM |
| CCOc1cccc2sc(N(Cc3cccnc3)C(=O)C3CCCCC3)nc12 | > 5000 nM |
| Oc1c(CN2CCN(c3ccccc3F)CC2)cc(Br)c2cccnc12 | 771 nM |
| OC(CNC1CCCCC1)Cn1c2ccc(I)cc2c2cc(I)ccc21 (stereo not given) | 137 nM |
| CC(C)(C)c1ccc2c(c1)CN(Cc1ccc(Cl)cc1)CO2 | 35.5 nM |
| COCCNCC(O)Cn1c2ccc(Cl)cc2c2cc(Cl)ccc21 (stereo not given) | 277 nM |
